# Test results from patent US20140128357A1, “METHODS OF PRODUCING AND USING BRASSINOSTEROIDS TO PROMOTE GROWTH, REPAIR AND MAINTENANCE OF SKELETAL MUSCLE AND SKIN” (Rutgers University, priority 2010, published 2014).
# Like-named read-outs stand apart in the source and are kept apart here.
# Assays:
# L6 rat myotubes [1] = assay: Protein degradation, release of acid-soluble [3H]-phenylalanine; type: cell-based; details: 10 μM; for Protein degradation (% decrease over control): 4 h
# Protocol: In some aspects, cell culture experiments were carried out. Rat L6 skeletal muscle cell line CRL-1458 was obtained from ATCC (Manassas, Va.). Myoblasts were routinely maintained in Dulbecco's modified Eagle's medium (DMEM) containing 10% FBS and 0.1% penicillin-streptomycin at 37° C. and 5% CO2. Cells were subcultured into 24-well plates for protein synthesis, degradation, and cell viability studies and into 6-well plates for Western blot analyses (Greiner Bio One, Monroe, N.C.). Once cells reached 90% confluence, differentiation was induced by lowering the serum concentration to 2%, and medium was changed every 2 days. […] NIH 3T3 murine embryonic fibroblast cell line (ATCC #CCL-92) was maintained in DMEM and 10% FBS at 37° C. in 5% CO2, and passaged every 3-4 days.
# In various aspects, protein degradation is measured to determine the effect of brassinosteroid on a particular protein. All known methods for measuring protein degradation are included in the methods of the disclosure. The effect of brassinosteroids on protein degradation was investigated in fully differentiated myotubes as described by Fawcett et al. (Arch. Biochem. Biophys. 385:357-363, 2001) with slight modifications. Fully differentiated myotubes were incubated for 16 h to allow labeling of cellular proteins with 1.5 μCi/mL [^3H]-phenylalanine. […] The incubation was stopped by placing the cells on ice, and protein in the medium was precipitated with 5% trichloroacetic acid. Specific radioactivity of protein-free phenylalanine was quantified using liquid scintillation counter LS 6500 (Beckman Coulter, Fullerton, Calif.) and normalized to mg of total cell protein determined by BCA protein assay (Pierce Biotechnology, Rockford, Ill.).
# The bioactivity of HB and its analogs (as shown in Table 3) were also evaluated by measuring decreases in protein degradation in the L6 rat skeletal muscle cells in vitro. Cells were labeled overnight with [^3H]-phenylalanine and subsequently treated for 4 h in triplicate with vehicle (0.1% ethanol) or test compound (10 μM), and protein degradation was assessed as release of acid-soluble [^3H]-phenylalanine into the media normalized by total protein (Table 3).
# [2] = test system: NIH 3T3 murine fibroblast cell line; assay: Cytotoxicity, MTT assay in 3T3 fibroblasts; type: cell-based, mouse
# Protocol: FIG. 9. Cell survival curves as measured by MTT assay for brassinosteroids 1-9 against the murine fibroblast cell line NIH-3T3. Cells were incubated with various concentrations of brassinosteroids (0.3-30 μM) for 24 h at 37° C. The mean absorbance of the control cells represented 100% cell proliferation, and the mean absorbance of treated cells was related to control values to determine sensitivity. Error bars represent standard error (n=6) from mean cell proliferation as determined by repeated experiments.
# In various aspects, cell viability is measured and the effects of doses of compound and test reagents are tested in cell lines. In some aspects, cell viability was measured by the MTT (3-(4,5-Dimethylthiazol-2-yl)-2,5-diphenyltetrazolium bromide) assay in triplicate (Mosmann et al., J. Immunol. Methods 65:55-63, 1983) and quantified spectrophotometrically at 550 nm using a microplate reader (Molecular Devices, Sunnyvale, Calif.).
# 3T3 fibroblasts were seeded in a 96-well flat bottom plate at a density of 1×10^4 cells/well. Cell viability was measured by an MTT (3-(4,5-Dimethylthiazol-2-yl)-2,5-diphenyltetrazolium bromide) assay in triplicate (0.3-30 μM of test substance for […]) essentially as described by Mosmann (J. Immunol. Methods 65, 55-63, 1983) and quantified spectrophotometrically at 550 nm using a microplate reader (Molecular Devices, Sunnyvale, Calif.). […] For cell proliferation studies, cells were treated in triplicate with 0.1-10 μM of test substance for 24 h and assayed using a BrdU (5-bromo-2′-deoxyuridine) kit from Amersham (Uppsala, Sweden).
# [3] = test system: orchiectomized (ORX) Wistar rats; assay: 10-d Hershberger assay in ORX rats, subcutaneous HB (Protocol 4); type: in vivo, rat; details: for increase in gastrocnemius muscle mass: subcutaneous
# Protocol: Protocol 4: Four-week-old sham-operated (sham, n=6) or orchiectomized (ORX, n=24) Wistar rats (Charles River Laboratories, MA) were subject to a 10-d Hershberger assay (surgically castrated peri-pubertal adult model) under the following experimental conditions: sham, ORX (vehicle), ORX (0.4 mg/kg HB subcutaneously), ORX (4 mg/kg HB subcutaneously), and ORX (0.4 mg/kg testosterone propionate subcutaneously, serving as a positive control for the assay). All procedures and measurements followed protocol 1. […]
# [4] = test system: AKT (Ser473) phosphorylation in L6 myotubes; assay: AKT (Ser473) phosphorylation, Western blot; type: cell-based, rat; details: for activation of AKT: after 1 h
# Protocol: In some aspects, Western blot analyses were carried out. Fully differentiated L6 myotubes were cultured as described above, and whole cell extracts were prepared in ice-cold RIPA buffer supplemented with 10 mM sodium fluoride, 2 mM sodium orthovanadate, 1 mM PMSF, and protease inhibitor cocktail (Sigma) and centrifuged at 12,000 g for 20 min at 4° C. Equal amounts of protein (50 μg) from the supernatants were separated on 10% SDS polyacrylamide gels and blotted onto the nitrocellulose membrane. Western blot detection was carried out with monoclonal phospho-AKT (Ser473) antibodies according to the manufacturer's instructions (Cell Signaling Technology, Danvers, Mass.). After being washed, the blots were incubated with an anti-rabbit peroxidase-labeled secondary antibody and visualized using ECL Western Blotting Detection Reagent (GE Healthcare, Piscataway, N.J.). After being stripped, the same blots were probed with total AKT antibodies to serve as loading controls.
# L6 rat myotubes [5] = assay: Protein degradation, release of acid-soluble [3H]-phenylalanine; type: cell-based; details: for decrease in protein degradation vs control levels: 1 μM, 4 h
# [6] = 0.4 mg/kg subcutaneous daily 10 d
# [7] = 4 mg/kg subcutaneous daily 10 d
compound,measurement,setting,value
"CC[C@@H](C(C)C)[C@H](O)[C@@H](O)[C@@H](C)[C@H]1CC[C@H]2[C@@H]3COC(=O)[C@H]4C[C@H](O)[C@H](O)C[C@]4(C)[C@H]3CC[C@]12C [Compound 1, (22S,23S,24S)-2α,3α,22,23-tetrahydroxy-24 ethyl-β-homo-7-oxo-5α-cholestane-6-one]",Protein degradation (% decrease over control),L6 rat myotubes [1],−24.1 ± 5.5 %
same,decrease in protein degradation vs control levels,L6 rat myotubes [1]; 4 h (FIG. 2C),9.5±0.9%
same,IC50,"[2]; 3T3 mouse fibroblasts, MTT, 0.3-30 μM, read-out: Cell cytotoxicity, IC50",> 30 µM
same,cytotoxicity in vitro,[2]; tested up to 30 μM,no cytotoxicity
same,Bulbocavernosus/levator ani weight,[3]; [6],131.3 ± 7.1 mg
same,Cowper's gland weight,[3]; [6],11.3 ± 0.5 mg
same,Glans penis weight,[3]; [6],50.7 ± 1.9 mg
same,Seminal vesicles weight,[3]; [6],29.0 ± 3.1 mg
same,Ventral prostate weight,[3]; [6],18.3 ± 1.2 mg
same,Bulbocavernosus/levator ani weight,[3]; [7],147.5 ± 6.9 mg
same,Cowper's gland weight,[3]; [7],10.5 ± 0.3 mg
same,Glans penis weight,[3]; [7],56.3 ± 3.3 mg
same,Seminal vesicles weight,[3]; [7],30.2 ± 1.2 mg
same,Ventral prostate weight,[3]; [7],23.2 ± 1.2 mg
same,increase in gastrocnemius muscle mass,[3]; one-fold dose of positive control (0.4 mg/kg),2.8%
same,increase in gastrocnemius muscle mass,[3]; ten-fold dose of positive control (4 mg/kg),9.1%
same,time to AKT phosphorylation,[4],30 min
same,stimulation of Ser473 phosphorylation of AKT,"[4]; 3 μM, 1 h",up to 3 fold
same,activation of AKT,[4],significant activation of AKT
same,decrease in protein degradation vs control levels,L6 rat myotubes [5],8.2±0.6%
same,time at which suppression of protein degradation reached a plateau,"L6 rat myotubes [5]; 3 μM HB, 1-4 h study",3 h
"CC[C@@H](C(C)C)[C@H](O)[C@@H](O)[C@@H](C)[C@H]1CC[C@H]2[C@@H]3CC(=O)[C@H]4C[C@H](O)[C@H](O)C[C@]4(C)[C@H]3CC[C@]12C [Compound 2, (22S,23S,24S)-2α,3α, 22,23-tetrahydroxy-24-ethyl-5α-cholestan-6-one]",Protein degradation (% decrease over control),L6 rat myotubes [1],−23.1 ± 4.2 %
same,activation of AKT,[4],significant activation of AKT
same,decrease in protein degradation vs control levels,L6 rat myotubes [5],8.7±1.7%
same,concentration at which inhibition of protein degradation reached a plateau,L6 rat myotubes [5]; 4 h dose response,10 µM
"CC[C@@H](C(C)C)[C@H](O)[C@@H](O)[C@@H](C)[C@H]1CC[C@H]2[C@@H]3CC(=O)N[C@H]4C[C@H](O)[C@H](O)C[C@]4(C)[C@H]3CC[C@]12C [Compound 5, (22S,23S,24S)-2α,3α-22,23-tetrahydroxy-24-ethyl-B-homo-6-aza-5α-cholestan-7-one]","effect of structural modification on protein degradation activity, in words",L6 rat myotubes [1],only a minor effect on its biological activity
same,Protein degradation (% decrease over control),L6 rat myotubes [1],−13.6 ± 3.8%
same,IC50,[2],12.5 µM
same,IC50,"[2]; 3T3/NIH murine fibroblasts, MTT, 24 h (FIG. 9), read-out: half-maximal inhibitory concentration (IC50), cell proliferation",12.5 µM
